The assay deals with L1210 leukemia ip in BDF1 mice, survival T/C. Description: NCI In Vivo Anticancer Drug Screen. Data for tumor model L1210 Leukemia (intraperitoneal) in B6D2F1 (BDF1) mice. As to conditions: endpoint: mean survival time, higher = longer survival. The method, boiled down: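 Value reflects the ratio of survival in compound-treated mice to survival in vehicle-treated controls, with both groups carrying the same transplanted tumor.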

Where [1] appears, read: dose: 100.0 mg/kg/injection, schedule: Q01DX009 (ip), vehicle: Klucel (hydroxypropylcellulose) (HPC).
The mark [2] stands for this setting: dose: 100.0 mg/kg/injection, schedule: Q04DX003 (ip), vehicle: Klucel (hydroxypropylcellulose) (HPC).
The mark [3] stands for this setting: dose: 200.0 mg/kg/injection, schedule: Q04DX003 (ip), vehicle: Klucel (hydroxypropylcellulose) (HPC).
Setting [4] is: dose: 400.0 mg/kg/injection, schedule: Q04DX003 (ip), vehicle: Klucel (hydroxypropylcellulose) (HPC).
The mark [5] stands for this setting: dose: 50.0 mg/kg/injection, schedule: Q01DX001 (ip), vehicle: saline.
The mark [6] stands for this setting: dose: 100.0 mg/kg/injection, schedule: Q01DX001 (ip), vehicle: saline.
Where [7] appears, read: dose: 10.0 mg/kg/injection, schedule: Q01DX001 (ip), vehicle: saline.

“And” between values parts separate entries of the source, which are not always exact repeats. Equal entries are not always repeated. Toxic doses and inconclusive results are not listed.

Consider `Cc1ccc(S(=O)(=O)OCC2C3C=CC(C3)C2COS(=O)(=O)c2ccc(C)cc2)cc1` (stereo unspecified), for which the T/C was 92 % of control under setting [1]; 95 % of control under setting [2]; 97 % of control (dose: 200.0 mg/kg/injection, schedule: Q01DX009 (ip), vehicle: Klucel (hydroxypropylcellulose) (HPC)); 98 % of control under setting [3]; 98 % of control (dose: 400.0 mg/kg/injection, schedule: Q01DX009 (ip), vehicle: Klucel (hydroxypropylcellulose) (HPC)); 95 % of control under setting [4].

Take `Nc1nc2c(ncn2-c2cccc(-c3ccccc3)c2)c(=O)[nH]1`: the T/C by setting is: (dose: 25.0 mg/kg/injection, schedule: Q04DX003 (ip), vehicle: saline with Tween-80) 100 % of control; (dose: 50.0 mg/kg/injection, schedule: Q04DX003 (ip), vehicle: saline with Tween-80) 102 % of control; (dose: 100.0 mg/kg/injection, schedule: Q04DX003 (ip), vehicle: saline with Tween-80) 100 % of control; (dose: 200.0 mg/kg/injection, schedule: Q04DX003 (ip), vehicle: saline with Tween-80) 87 % of control.

For `CCCCCC/C=C/C=C/C(C)C`, the T/C reads like this: (dose: 75.0 mg/kg/injection, schedule: Q01DX001 (ip), vehicle: saline) 95 % of control; (dose: 75.0 mg/kg/injection, schedule: Q04DX003 (ip), vehicle: saline) 104 % of control; (dose: 150.0 mg/kg/injection, schedule: Q01DX001 (ip), vehicle: saline) 101 % of control; (dose: 150.0 mg/kg/injection, schedule: Q04DX003 (ip), vehicle: saline) 102 % of control; (dose: 300.0 mg/kg/injection, schedule: Q01DX001 (ip), vehicle: saline) 105 % of control; (dose: 300.0 mg/kg/injection, schedule: Q04DX003 (ip), vehicle: saline) 100 % of control.

Turning to `C=CCN(C(=O)C=C)C1CCCCC1`, the T/C runs as follows: under setting [5], 98 % of control; under setting [6], 101 % of control.

On to `Cc1cc(SC#N)ncn1`, for which the T/C (dose: 5.0 mg/kg/injection, schedule: Q01DX001 (ip), vehicle: saline) is 98 % of control and the T/C under setting [7] was 101 % of control.

For the molecule `CCN(CC)CCCC#CCN1CCCCC1`, the T/C is 100 % of control (dose: 25.0 mg/kg/injection, schedule: Q01DX009 (ip), vehicle: Klucel (hydroxypropylcellulose) (HPC)); 103 % of control (dose: 25.0 mg/kg/injection, schedule: Q04DX003 (ip), vehicle: Klucel (hydroxypropylcellulose) (HPC)); 101 % of control (dose: 50.0 mg/kg/injection, schedule: Q01DX009 (ip), vehicle: Klucel (hydroxypropylcellulose) (HPC)); 106 % of control (dose: 50.0 mg/kg/injection, schedule: Q04DX003 (ip), vehicle: Klucel (hydroxypropylcellulose) (HPC)); 102 % of control under setting [1]; 103 % of control under setting [2].

`O=S(=O)(F)c1ccc(CBr)cc1`: the T/C (dose: 25.0 mg/kg/injection, schedule: Q01DX001 (ip), vehicle: saline) is 113 % of control; the T/C under setting [5] was 123 % of control; the T/C under setting [6] was 95 % of control and 98 % of control.

Regarding `COc1cc(Cl)ccc1NC(=O)Oc1ccc(C(=O)OCc2ccccc2)cc1`, the T/C (dose: 100.0 mg/kg/injection, schedule: Q01DX009 (ip), vehicle: saline) was 103 % of control; the T/C (dose: 200.0 mg/kg/injection, schedule: Q01DX009 (ip), vehicle: saline) was 97 % of control; the T/C (dose: 400.0 mg/kg/injection, schedule: Q01DX009 (ip), vehicle: saline) is 111 % of control.

For the molecule `COC1NC(=O)NC(=O)C1=[N+]=[N-]` (stereo unspecified), the T/C by setting is: (dose: 5.0 mg/kg/injection, schedule: Q04DX003 (ip), vehicle: saline with Tween-80) 115 % of control; (dose: 6.6 mg/kg/injection, schedule: Q01DX009 (ip), vehicle: saline with Tween-80) 150 % of control; (dose: 10.0 mg/kg/injection, schedule: Q01DX009 (ip), vehicle: saline with Tween-80) 170 % of control; (dose: 10.0 mg/kg/injection, schedule: Q04DX003 (ip), vehicle: saline with Tween-80) 118 % of control; (dose: 15.0 mg/kg/injection, schedule: Q01DX009 (ip), vehicle: saline with Tween-80) 163 % of control.

Regarding `CC(=O)Nc1ccc(OC(=O)Nc2ccc(C)cc2[N+](=O)[O-])cc1`, the T/C under setting [2] is 91 % of control, the T/C under setting [3] was 102 % of control and the T/C under setting [4] is 106 % of control.

Take `Cc1ccnc(NS(=O)(=O)c2ccc(NC(=O)c3ccc(C(=O)Nc4ccc(S(=O)(=O)Nc5nccc(C)n5)cc4)cc3)cc2)n1`: the T/C by setting is: (dose: 3.87 mg/kg/injection, schedule: Q01DX015 (ip), vehicle: methylcellulose (MC)) 96 % of control; (dose: 7.75 mg/kg/injection, schedule: Q01DX015 (ip), vehicle: methylcellulose (MC)) 101 % of control; (dose: 15.5 mg/kg/injection, schedule: Q01DX015 (ip), vehicle: methylcellulose (MC)) 104 % of control; (dose: 31.0 mg/kg/injection, schedule: Q01DX015 (ip), vehicle: methylcellulose (MC)) 104 % of control; (dose: 62.0 mg/kg/injection, schedule: Q01DX015 (ip), vehicle: methylcellulose (MC)) 94 % of control; (dose: 125.0 mg/kg/injection, schedule: Q01DX015 (ip), vehicle: methylcellulose (MC)) 101 % of control. Besides, the T/C (dose: 250.0 mg/kg/injection, schedule: Q01DX015 (ip), vehicle: methylcellulose (MC)) was 100 % of control and the T/C (dose: 500.0 mg/kg/injection, schedule: Q01DX015 (ip), vehicle: methylcellulose (MC)) is 102 % of control.

In the case of `CCCCCCCCCCCCCC[n+]1cccc(C#N)c1`, the T/C under setting [7] was 100 % of control; the T/C (dose: 10.0 mg/kg/injection, schedule: Q04DX003 (ip), vehicle: saline) was 93 % of control; the T/C (dose: 20.0 mg/kg/injection, schedule: Q01DX001 (ip), vehicle: saline) is 100 % of control; the T/C (dose: 20.0 mg/kg/injection, schedule: Q04DX003 (ip), vehicle: saline) was 93 % of control; the T/C (dose: 40.0 mg/kg/injection, schedule: Q01DX001 (ip), vehicle: saline) was 97 % of control; the T/C (dose: 40.0 mg/kg/injection, schedule: Q04DX003 (ip), vehicle: saline) is 86 % of control.

`CCCCC(CCCC(=O)O)C(=O)O` (stereo unspecified): the T/C is 93 % of control (dose: 100.0 mg/kg/injection, schedule: Q01DX001 (ip), vehicle: carboxymethylcellulose (CMC)); 96 % of control (dose: 200.0 mg/kg/injection, schedule: Q01DX001 (ip), vehicle: carboxymethylcellulose (CMC)); 98 % of control (dose: 400.0 mg/kg/injection, schedule: Q01DX001 (ip), vehicle: carboxymethylcellulose (CMC)).

Take `CC(=O)OC1CC2C(C)(C)C(=O)C=CC2(C)C2CCC3(C)C(c4ccoc4)OC(=O)C4OC43C12C` (stereo unspecified): the T/C runs as follows: (dose: 100.0 mg/kg/injection, schedule: Q01DX001 (sc), vehicle: steriod suspending solution) 104 % of control; (dose: 200.0 mg/kg/injection, schedule: Q01DX001 (sc), vehicle: steriod suspending solution) 104 % of control; (dose: 400.0 mg/kg/injection, schedule: Q01DX001 (sc), vehicle: steriod suspending solution) 92 % of control.

As for `Cc1ccc(C(=O)C(=O)c2ccccc2)c(C)c1`, the T/C was 107 % of control under setting [6]; 102 % of control (dose: 200.0 mg/kg/injection, schedule: Q01DX001 (ip), vehicle: saline); 96 % of control (dose: 400.0 mg/kg/injection, schedule: Q01DX001 (ip), vehicle: saline).

On to `CCOC(=O)/C(=C\c1ccc(N(C)C)cc1)c1nc2ccccc2[nH]1`, for which the T/C reads like this: (dose: 100.0 mg/kg/injection, schedule: Q04DX002 (ip), vehicle: saline with Tween-80) 92 % of control; (dose: 200.0 mg/kg/injection, schedule: Q04DX002 (ip), vehicle: saline with Tween-80) 92 % of control; (dose: 400.0 mg/kg/injection, schedule: Q04DX002 (ip), vehicle: saline with Tween-80) 104 % of control.

With `Cc1cc(C)c(S(=O)(=O)c2ccc([N+](=O)[O-])c3ccccc23)c(C)c1`, the T/C by setting is: (dose: 100.0 mg/kg/injection, schedule: Q01DX001 (ip), vehicle: Klucel (hydroxypropylcellulose) (HPC)) 107 % of control; (dose: 200.0 mg/kg/injection, schedule: Q01DX001 (ip), vehicle: Klucel (hydroxypropylcellulose) (HPC)) 91 % of control; (dose: 400.0 mg/kg/injection, schedule: Q01DX001 (ip), vehicle: Klucel (hydroxypropylcellulose) (HPC)) 101 % of control.

With `O=C(N/N=C/c1ccc(Cl)cc1)C(O)(c1ccccc1)c1ccccc1`, the T/C runs as follows: (dose: 100.0 mg/kg/injection, schedule: Q01DX009 (ip), vehicle: saline with Tween-80) 88 % of control; (dose: 400.0 mg/kg/injection, schedule: Q01DX009 (ip), vehicle: saline with Tween-80) 102 % of control.

The values above are taken from PubChem BioAssay AID248 (DTP/NCI, 2004).
